Results reported in PubChem BioAssay (NCI).
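Cultured in 96-well plates, cells were exposed to test compound for 48 hours across five concentrations. The concentration for 50% growth inhibition is given as GI50. TGI marks complete inhibition of growth.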

How the values were obtained:
Assay in all cases: DTP human tumour cell line panel, 48 h
[1] = tested on: 786-0 renal
[2] = tested on: A498 renal
[3] = tested on: A549 NSCLC
[4] = tested on: ACHN renal
[5] = tested on: BT-549 breast
[6] = tested on: CAKI-1 renal
[7] = tested on: CCRF-CEM leukemia
[8] = tested on: COLO 205 colon
[9] = tested on: DU-145 prostate
[10] = tested on: EKVX NSCLC
[11] = tested on: HCC-2998 colon
[12] = tested on: HCT-116 colon
[13] = tested on: HCT-15 colon
[14] = tested on: HL-60(TB) leukemia
[15] = tested on: HOP-62 NSCLC
[16] = tested on: HOP-92 NSCLC
[17] = tested on: HS 578T breast
[18] = tested on: HT29 colon
[19] = tested on: IGROV1 ovarian
[20] = tested on: K-562 leukemia
[21] = tested on: KM12 colon
[22] = tested on: LOX IMVI melanoma
[23] = tested on: M14 melanoma
[24] = tested on: MALME-3M melanoma
[25] = tested on: MCF7 breast
[26] = tested on: MDA-MB-231 breast
[27] = tested on: MOLT-4 leukemia
[28] = tested on: NCI-H226 lung
[29] = tested on: NCI-H23 lung
[30] = tested on: NCI-H460 lung
[31] = tested on: NCI-H522 lung
[32] = tested on: NCI/ADR-RES ovarian
[33] = tested on: OVCAR-4 ovarian
[34] = tested on: OVCAR-5 ovarian
[35] = tested on: OVCAR-8 ovarian
[36] = tested on: PC-3 prostate
[37] = tested on: RPMI-8226 leukemia
[38] = tested on: RXF 393 renal
[39] = tested on: SF-268 CNS
[40] = tested on: SF-295 CNS
[41] = tested on: SF-539 CNS
[42] = tested on: SK-MEL-2 melanoma
[43] = tested on: SK-MEL-28 melanoma
[44] = tested on: SK-MEL-5 melanoma
[45] = tested on: SK-OV-3 ovarian
[46] = tested on: SN12C renal
[47] = tested on: SNB-19 CNS
[48] = tested on: SNB-75 CNS
[49] = tested on: SR leukemia
[50] = tested on: SW-620 colon
[51] = tested on: T-47D breast
[52] = tested on: TK-10 renal
[53] = tested on: U251 CNS
[54] = tested on: UACC-257 melanoma
[55] = tested on: UACC-62 melanoma
[56] = tested on: UO-31 renal

## CCn1c2ccccc2c2cc(-n3nncc3-c3ccccc3)ccc21
[1]
  GI50: 0.34 µM
  TGI: > 100 µM
[2]
  GI50: 0.0954 µM
  TGI: 0.799 µM
[3]
  GI50: 0.208 µM
  TGI: > 100 µM
[4]
  GI50: 0.301 µM
  TGI: > 100 µM
[5]
  GI50: 0.147 µM
  TGI: 2.03 µM
[6]
  GI50: 0.0775 µM
  TGI: > 100 µM
[7]
  GI50: 0.203 µM
  TGI: > 100 µM
[8]
  GI50: 0.134 µM
  TGI: 0.438 µM
[9]
  GI50: 0.375 µM
[10]
  GI50: 0.532 µM
  TGI: > 100 µM
[11]
  GI50: 0.277 µM
  TGI: > 52.4 µM
[12]
  GI50: 0.0722 µM
[13]
  GI50: 0.067 µM
  TGI: > 100 µM
[14]
  GI50: 0.0697 µM
  TGI: > 20.3 µM
[15]
  GI50: 0.141 µM
  TGI: > 100 µM
[16]
  TGI: > 77.6 µM
[17]
  GI50: 0.0615 µM
  TGI: > 100 µM
[18]
  GI50: 0.117 µM
  TGI: 0.927 µM
[19]
  GI50: 0.164 µM
  TGI: > 100 µM
[20]
  GI50: 0.0407 µM
  TGI: > 100 µM
[21]
  GI50: 0.049 µM
[22]
  GI50: 0.129 µM
  TGI: > 100 µM
[23]
  GI50: 0.0829 µM
  TGI: > 100 µM
[24]
  GI50: 2.43 µM
  TGI: > 100 µM
[25]
  GI50: 0.269 µM
  TGI: > 100 µM
[26]
  GI50: 0.54 µM
  TGI: > 100 µM
[27]
  GI50: 0.35 µM
  TGI: > 100 µM
[28]
  GI50: 0.519 µM
  TGI: > 100 µM
[29]
  GI50: 0.375 µM
  TGI: > 100 µM
[30]
  GI50: 0.081 µM
  TGI: > 62.6 µM
[31]
  GI50: 0.0302 µM
  TGI: 0.145 µM
[32]
  GI50: 0.0534 µM
  TGI: > 100 µM
[33]
  GI50: 29.7 µM
  TGI: > 100 µM
[34]
  GI50: 0.41 µM
  TGI: > 100 µM
[35]
  GI50: 0.3 µM
  TGI: > 100 µM
[36]
  GI50: 0.139 µM
  TGI: > 100 µM
[37]
  GI50: 0.289 µM
  TGI: > 71.2 µM
[38]
  GI50: 0.13 µM
  TGI: > 100 µM
[39]
  GI50: 0.843 µM
  TGI: > 100 µM
[40]
  GI50: 0.0459 µM
  TGI: > 100 µM
[41]
  GI50: 0.123 µM
  TGI: 0.754 µM
[42]
  GI50: 0.104 µM
  TGI: > 31.2 µM
[43]
  GI50: > 64.4 µM
  TGI: > 100 µM
[44]
  GI50: 0.435 µM
  TGI: 4.02 µM
[45]
  GI50: 0.383 µM
  TGI: > 100 µM
[46]
  GI50: 0.8 µM
  TGI: > 100 µM
[47]
  GI50: 0.285 µM
  TGI: > 100 µM
[48]
  GI50: 0.0266 µM
  TGI: 0.262 µM
[49]
  GI50: 0.0375 µM
  TGI: > 100 µM
[50]
  GI50: 0.0732 µM
  TGI: > 100 µM
[51]
  TGI: > 100 µM
[52]
  GI50: > 73.8 µM
  TGI: > 100 µM
[53]
  GI50: 0.116 µM
  TGI: > 100 µM
[54]
  GI50: 22.2 µM
  TGI: > 100 µM
[55]
  GI50: 0.0618 µM
  TGI: > 100 µM
[56]
  GI50: 0.649 µM
  TGI: > 100 µM
